The test system of data set [1] is ARPE19 cells. In words: CellTiter-Glo luminescent cell viability assay, 15 μM 7KCh-induced cytotoxicity. The format is cell-based, human. The note with it: 24 hr, CellTiter-Glo. The method, then:
Error bar: standard deviation, n=4.
CellTiter-Glo® Luminescent Cell Viability Assay is a homogeneous method of determining the number of viable cells in culture based on quantitation of the ATP (luminescent signal) present, an indicator of metabolically active cells.
The contents in a plate were mixed for 2 min on an orbital shaker to induce cell lysis.
5) The plate was allowed to incubate at room temperature for 10 min to stabilize luminescent signal.

Data set [2] relates to ARPE-19 cells. The data set can be described thus: qRT-PCR of inflammatory cytokines and ER stress markers, 7KCh-mediated inflammation. Format: cell-based. Here is the method:
FIGS. 13A-13D depict mRNA expressions of (A) VEGF, (B) IL-6, (C) GRP78, and (D) CHOP in response to 8 μM 7KCh with or without 1 μM long-chain fatty acids. Error bars indicate the standard deviations. *p<0.05 comparing to 7KCh, n=3. Two-tailed Student's t-test.
FIGS. 14A-14D depict mRNA expressions of (A) VEGF, (B) IL-1b, (C) IL-6, and (D) IL-8 in response to 8 μM 7KCh, 1 μM sterculic acid, 1 μM stearic acid, or the combinations of 7KCh with either sterculic acid or stearic acid. Error bars indicate the standard deviations. *p<0.05 comparing to 7KCh, n=4. Two-tailed Student's t-test.
FIGS. 15A-15D depict mRNA expressions of (A) TNF-α, (B) TGF-β1, (C) GRP78, and (D) CHOP in response to 8 μM 7KCh, 1 μM sterculic acid, 1 μM stearic acid, or the combinations of 7KCh with either sterculic acid or stearic acid. Error bars indicate the standard deviations. *p<0.05 comparing to 7KCh, n=3-4. Two-tailed Student's t-test.
(§1) ARPE-19 cells were seeded in 24-well plates with 1×10^5 cells per well and allowed to recover for 16-24 hr. Once confluency reached approximately 90%, the effect of the fatty acids against 7KCh-mediated cell death was examined 24 hr after incubation in serum-free medium with 12 μM 7KCh. Fatty acids were tested at 0.1, 0.5, 1, 5 and 10 μM concentrations. The effects of the fatty acids against 7KCh-mediated inflammation and ER stress were examined by incubating cells in 1 μM fatty acids with either 8 μM 7KCh (24 hr for quantitative real-time PCR (qRT-PCR), 24 and 48 hr for immunoblot), or 6 μM 7KCh for 48 hr (for ELISA). Three individual experiments were performed for each treatment with quadruplicate measurements performed for each experiment in 24-well plates.
(§2) The RNA was extracted using RNeasy Mini Kit (Qiagen, Valencia, Calif.). The reverse transcription was performed with reagents and kits from Invitrogen. Quantification of mRNA expression was performed using the Taqman gene expression assays and the following primers (VEGFa, Hs00173626_m1; IL-1β, Hs01555413_m1; IL-6, Hs00174131_m1; IL-8, Hs00174103_m1; IκBα, Hs00153283_m1; GRP78, Hs99999174_m1; CHOP, Hs01090850_m1; NOX2, Hs00166163_m1; NOX4, Hs01558199_m1; SCD, Hs00748952 s1; TNF-α, Hs00174128_m1; TGF-β1, Hs00998133_m1; GAPD, 4352934e). GAPD expression was used as an endogenous standard. All qRT-PCR experiments were measured in triplicates in an ABI 7500 Real-Time PCR Instrument (Applied Biosystems, Foster City, Calif.). The results of each treatment were normalized and presented in percentage relative to the vehicle-only control.

The test system of data set [3] is ARPE-19 cells. In words: ELISA of secreted VEGF, IL-6, IL-8 in conditioned medium. Format: cell-based. Conditions: 6 μM 7KCh alone or with 1 μM fatty acid, 48 hr. The method, then: FIGS. 16A-16E depict the secreted protein levels of (A) VEGF, (B) IL-6, and (C) IL-8 were measure by ELISA 48 hr after treatment with 6 μM 7KCh, 1 μM sterculic acid, 1 μM stearic acid, or the combinations of 7KCh with either sterculic acid or stearic acid. Error bars indicate the standard deviations. *p<0.05 comparing to 7KCh, n=3. Two-tailed Student's t-test. The expressions of GRP78 and CHOP were shown by immunoblots (D) 24 hr or (E) 48 hr after treatment with 8 μM 7KCh, 1 μM sterculic acid, 1 μM stearic acid, or the combinations of 7KCh with either sterculic acid or stearic acid.
as §1
The levels of secreted VEGF, IL-6, IL-8, and TNF-α in conditioned medium of ARPE-19 cell cultures were measured 48 hr after treatments of 6 μM 7KCh and 1 μM fatty acids using the Quantkine ELISA kits from R&D systems (Minneapolis, Minn.). The protein levels were measured in triplicates. The ELISA results were quantified using an Envision multilable plate reader (PerkinElmer, Covina, Calif.) and presented in percentage relative to the vehicle-only control.

Data set [4] concerns stearoyl-CoA desaturase (SCD). In words: SCD mRNA expression (qRT-PCR). The format is cell-based. The note with it: 4 μM 7KCh, 24 hr. The method, then:
FIGS. 18A and 18B depict (A) Dose response of SCD mRNA inductions by 0-12 μM 7KCh after 24 hr treatments. (B) The mRNA expressions of SCD in response to 8 μM 7KCh, 1 μM sterculic acid, 1 μM stearic acid, or the combinations of 7KCh with either sterculic acid or stearic acid. Error bars indicate the standard deviations. n=4.
as §2
To determine the effect of 7KCh on SCD expression ARPE-19 cells were incubated with 4 μM 7KCh for 24 hr. 7KCh suppressed SCD mRNA expression by approximately 60-70% (FIG. 18A). […] Treatment of the cells with 8 μM 7KCh and 1 μM sterculic acid further suppress SCD expression to 86% (FIG. 18B). […] This is the only instance where 7KCh and sterculic acid worked synergistically rather than antagonistically.

The nature of data set [5]: 7-ketocholesterol-mediated cytotoxicity, 24-well CCK-8 viability. Conditions: human.
Data set [6] concerns ARPE19 cells. In words: Cell Counting Kit-8 viability assay, 15 μM 7KCh-induced cytotoxicity.
Description: 4×10^4 cells were seeded onto wells of a 96 well plate. […] Cell viability was determined as celluar dehydrogenase activity and expressed as the percentage of compound treated cells relative to that of untreated controls. error bar: standard deviation, n=4.
The kit allows sensitive colorimetric assays for the determination of the number of viable cells in cell proliferation and cytotoxicity assays. The amount of the formazan dye generated by the activity of dehydrogenases in cells is directly proportional to the number of living cells.
1) Cells were cultivated in a 96 well cell plate (Costar#3599, Corning Incorp, Corning, N.Y.).
2) The cell suspension (40,000 cells/100 μL) were added to 100 μL culture media per well and stood for 15 min at room temperature and cultured at 37° C. in a humidified 5% CO2 atmosphere.
3) Approximately 19 hr after seeding, when the cells were fully confluent, the cells were treated with either DMSO or 1 μM fatty acid in 200 μL of serum free media and subsequently added with 15 μM 7KCh in HPBCD. Then, the plate was swirled for mixing. The cells were also treated with DMSO and HPBCD, which served as vehicle control. The final DMSO and HPBCD concentrations in the media were in the range of 0.1% and 0.0675%, respectively.
Cell viability was expressed as the percentage of compound treated cells relative to that of untreated controls. Prior to measure cell viability, the cells were imaged live by Nikon TE 2000-U inverted fluorescent microscope.
The subject of data set [7] is ARPE19 cells. The data set can be described thus: Phase-contrast images of cells after co-treatment with 15 μM 7KCh. The note with it: 1 μM fatty acid + 15 μM 7KCh, 24 hr. Format: cell-based, human. The source says:
FIG. 8 depicts phase-contrast images of ARPE19 cells at 24 hr after sterculic acid co-treatment with 7KCh.

For data set [8], the system named is ARPE-19 cells. The data set can be described thus: Fatty acids against 7KCh-mediated cell death (CCK8). The format is cell-based. The note with it: 12 μM 7KCh for 24 hr; tested 0.1, 0.5, 1, 5 and 10 μM. The method, then: FIGS. 12A-12C depict ARPE-19 cell viability in response to 12 μM 7KCh with or without 0.1-5 μM (A) sterculic acid and (B) stearic acid after 24 hr treatments. Error bars indicate the standard deviations. n=3-5. Two-tailed Student's t-test. (C) Representative images of changes in cell morphology in response to 12 μM 7KCh with or without 1 μM sterculic acid and stearic acid after 24 hr treatments.
as §1
The cell viability was determined by the dehydrogenase activity of the ARPE-19 cells using Cell Counting Kit-8 (CCK8, Dojindo, Gaithersburg, Md.) according to manufacturer's protocol.
The lowest effective concentrations of fatty acids that offset the 7KCh-mediated cell death were determined. […] Table 3 lists the lowest concentrations of these fatty acids required to maintain full cell viability against 12 μM 7KCh treatment. All unsaturated fatty acids protected against 7KCh-induced cell death. […] DHA, α-linolenic, and linoleic acid prevented 7KCh-mediated cell death at 5 μM but the rest of unsaturated fatty acids and dihydrosterculic acid required 10 μM to be protective.

Data set [9] has as its system D407 cells. The data set can be described thus: 7-ketocholesterol-mediated cytotoxicity, 24-well CCK-8 viability. Conditions: 5 μM co-treatment with 11 μM 7KCh, 24 hr.
Data set [10] deals with ARPE19 cells. In words: Microelectronic cell sensor assay (RT-CES), 7KCh-induced cytotoxicity. The note with it: 1 μM fatty acid + 15 μM 7KCh, serum free media.
Description: 4×10^4 cells were seeded onto wells of 16× microtiter plates. […] Cell viability was determined as a cell index (CI) calculated from the impedance of each well automatically by the RT-CES system once per hr until the end of the experiment. The data was normalized at the point immediately prior to compound treatment.
RT-CES® System is a cell-based assay system that monitors cellular events by measuring the electronic impedance of sensor electrodes integrated on the bottom of microtiter E-Plates. The presence of the cells will lead to an increase in the electrode impedance. The more cells attached to the sensor, the higher the impedance that could be monitored with RT-CES.
1) Cells were cultivated in the ACEA's 16X E-plate device containing microelectrodes at the bottom of each well to measure contact area and electrical properties of adherent cells. […]
4) Cell growth was monitored periodically (every 1 hr) for indicated durations via calculation of a “cell index” (reflect to the surface area covered by the cells) in each well. […]
6) The sensor devices were put into the incubator again and the cells were continuously monitored cellular status changes.
7) Cell viability was determined as a cell index (CI) calculated from the impedance of each well automatically by the RT-CES system once per hr until the end of the experiment. […]
The test system of data set [11] is ARPE19 cells. The data set can be described thus: 7-ketocholesterol-mediated cytotoxicity, 24-well CCK-8 viability and images. Conditions: 24 hr.

The values that follow come from patent US8993626B2, “Methods of treatment using sterculic acid” (The United States of America, as represented by the …, priority 2010, dated 2015).

Entries after “also recorded” stand apart in the source; their conditions may differ.

As for `CC(C)CCC[C@@H](C)[C@H]1CC[C@H]2[C@@H]3C(=O)C=C4C[C@@H](O)CC[C@]4(C)[C@H]3CC[C@]12C` [7KCh, 7-Ketocholesterol], the “loss in cell viability” value in data set [1] (15 μM 7KCh) is reported as 40-50%. Besides, the “VEGF mRNA expression” value in data set [2] (8 μM 7KCh alone or with 1 μM fatty acid, 24 hr, FIG. 13A) amounted to 4 fold. Besides, the “IL-6 mRNA expression” value in data set [2] (8 μM 7KCh alone or with 1 μM fatty acid, 24 hr, FIG. 13B) worked out at 22 fold. Also, the “GRP78 mRNA expression” value in data set [2] (8 μM 7KCh alone or with 1 μM fatty acid, 24 hr, FIG. 13C) was found to be 4 fold. Besides, the “CHOP mRNA expression” value in data set [2] (8 μM 7KCh alone or with 1 μM fatty acid, 24 hr, FIG. 13D) was determined as 15 fold. For the same molecule, the “induction of VEGF mRNA” value in data set [2] (8 μM 7KCh alone or with 1 μM fatty acid, FIG. 14A) was found to be 5.5 fold. The “induction of IL-1β mRNA” value in data set [2] (8 μM 7KCh alone or with 1 μM fatty acid, FIG. 14B) turned out to be 6.7 fold. In data set [2] (8 μM 7KCh alone or with 1 μM fatty acid, FIG. 14C), the “induction of IL-6 mRNA” value is 21 fold. The “induction of IL-8 mRNA” value in data set [2] (8 μM 7KCh alone or with 1 μM fatty acid, FIG. 14D) turned out to be 4.7 fold. Besides, the “induction of TNF-α mRNA” value in data set [2] (8 μM 7KCh alone or with 1 μM fatty acid, FIG. 15A) stood at 2.7 fold. The “induction of TGF-β1 mRNA” value in data set [2] (8 μM 7KCh alone or with 1 μM fatty acid, FIG. 15B) amounted to 1.3 fold. In addition, the “induction of GRP78 mRNA” value in data set [2] (8 μM 7KCh alone or with 1 μM fatty acid, FIG. 15C) came out at 5.4 fold. The “induction of CHOP mRNA” value in [2] (8 μM 7KCh alone or with 1 μM fatty acid, FIG. 15D) is given as 12 fold. For the same molecule, in data set [3], the “secreted IL-6 protein expression” value is recorded as 1.8 fold, the “secreted IL-8 protein expression” value was 1.7 fold and the “secreted VEGF protein expression” value was found to be 1.6 fold. For the same molecule, in [4], the “suppression of SCD mRNA expression” value is 60-70%. In addition, in data set [5], the midpoint of cytotoxicity, the CC50 at 24 h, lay at 11 µM. Besides, the “loss in cell viability” value in data set [6] (15 μM 7KCh, 24 hr, CCK-8) was 50-60%.
On to `CCCCCCCC/C=C\CCCCCCCC(=O)O` [oleic acid], for which the “increase of cell viability compared to 7KCh alone treatment” value was found to be 10% in data set [1] (1 μM fatty acid + 15 μM 7KCh) and 10% in data set [6] (1 μM fatty acid + 15 μM 7KCh, 24 hr, CCK-8). In addition, the “cell morphological changes compared to 7KCh alone” value in data set [7] is on record as “more cells compared to 7KCh alone”. In data set [8], the “CONC. (μM): lowest concentration required to maintain full cell viability against 7KCh” value worked out at 10 µM. Besides, the “effect on 7KCh-mediated mRNA induction (inflammatory response)” value in data set [2] (1 μM fatty acid + 8 μM 7KCh, 24 hr, FIG. 13) was “either ineffective or enhanced”. Besides, the “protection effect at 5 μM” value is listed as “slight effect; also recorded: not as significant comparing to sterculic acid” in data set [9] and “slight effect; also recorded: slight protection” in data set [11] (5 μM co-treatment with 12 μM 7KCh). Further, the “protective effect against cytotoxicity by 7KCh (summary of the viability assays)” value in data set [6] (1 μM fatty acid + 15 μM 7KCh) is reported as “slight protective effect”. The “protection from 7KCh induced cytotoxicity (cell index)” value in data set [10] is “slight protective effect”. Besides, the “protection of cell confluency and morphology (images)” value in data set [11] (0.5 μM co-treatment with 12 μM 7KCh) was “no effect”; in data set [11] (1 μM co-treatment with 12 μM 7KCh), “slight effect; also recorded: do not have such protection effect”.
